Data on four molecules can be found in patent publication US20200405699A1, “TREATING SICKLE CELL DISEASE WITH A PYRUVATE KINASE R ACTIVATING COMPOUND” (FORMA Therapeutics, Inc., priority 2018, published 2020).

What all share (format): biochemical
In experiment [1] the target is PKR(G332S) (Homo sapiens, UniProt P30613, G332S). The experiment in a line: Luminescence Assay (Kinase Glo Plus), PKR G332S. As to conditions: read-out: AC50 (PKRG332S). Here is the method: (§1) For each tested compound, the ability to activate PKR was determined using the following Luminescence Assay. The effect of phosphorylation of adenosine-5′-diphosphate (ADP) by PKR is determined by the Kinase Glo Plus Assay (Promega) in the presence or absence of FBP (D-fructose-1,6-diphosphate; BOC Sciences, CAS: 81028-91-3) as follows. Unless otherwise indicated, all reagents are purchased from Sigma-Aldrich. All reagents are prepared in buffer containing 50 mM Tris-HCl, 100 mM KCl, 5 mM MgCl2, and 0.01% Triton X100, 0.03% BSA, and 1 mM DTT. Enzyme and PEP (phosphoenolpyruvate) are added at 2× to all wells of an assay-ready plate containing serial dilutions of test compounds or DMSO vehicle. Final enzyme concentrations for PKR(wt), PKR(R510Q), and PKR(G332S) are 0.8 nM, 0.8 nM, and 10 nM respectively. Final PEP concentration is 100 μM. The Enzyme/PEP mixture is incubated with compounds for 30 minutes at RT before the assay is initiated with the addition of 2×ADP and KinaseGloPlus. Final concentration of ADP is 100 μM. […] For assays containing FBP, that reagent is added at 30 μM upon reaction initiation. Reactions are allowed to progress for 45 minutes at RT until luminescence is recorded by the BMG PHERAstar FS Multilabel Reader. The compound is tested in triplicate at concentrations ranging from 42.5 μM to 2.2 nM in 0.83% DMSO. AC50 measurements were obtained by the standard four parameter fit algorithm of ActivityBase XE Runner (max, min, slope and AC50). The AC50 value for a compound is the concentration (μM) at which the activity along the four parameter logistic curve fit is halfway between minimum and maximum activity.
Sequence of PKR(G332S) (P30613 whole entry G332S): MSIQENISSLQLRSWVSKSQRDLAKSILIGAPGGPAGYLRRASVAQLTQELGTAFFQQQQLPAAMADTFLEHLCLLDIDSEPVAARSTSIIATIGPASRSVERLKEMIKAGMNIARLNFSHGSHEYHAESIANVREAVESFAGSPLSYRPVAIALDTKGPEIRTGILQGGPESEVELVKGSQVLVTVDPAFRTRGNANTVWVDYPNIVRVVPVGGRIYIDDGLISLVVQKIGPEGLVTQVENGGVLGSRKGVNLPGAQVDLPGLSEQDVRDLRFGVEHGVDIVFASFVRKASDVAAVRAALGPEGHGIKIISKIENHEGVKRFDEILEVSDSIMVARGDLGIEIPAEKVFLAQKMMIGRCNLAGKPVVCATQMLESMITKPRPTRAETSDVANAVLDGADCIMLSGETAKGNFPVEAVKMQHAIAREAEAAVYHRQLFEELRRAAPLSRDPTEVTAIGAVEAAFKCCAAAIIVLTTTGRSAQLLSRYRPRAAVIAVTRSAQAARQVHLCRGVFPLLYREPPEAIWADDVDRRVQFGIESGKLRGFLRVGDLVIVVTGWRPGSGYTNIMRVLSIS
(§2) As set forth in Tables 2 and 3 below and in FIG. 1, AC50 values are defined as follows: ≤0.1 μM (+++); >0.1 μM and ≤1.0 μM (++); >1.0 μM and ≤40 μM (+); >40 μM (0).
For orientation: Kinase-Glo measures the ATP left after a reaction by luminescence.

For experiment [2], the target named is PKR-R510Q (Homo sapiens, UniProt P30613, R510Q). The experiment can be described thus: Luminescence Assay (Kinase Glo Plus), PKR R510Q. As to conditions: read-out: AC50 (PKRR510Q). Here is the method: as §1, §2
Sequence of PKR-R510Q (P30613 whole entry R510Q): as the sequence (P30613 whole entry G332S) above, with S332G, R510Q counted along it
Experiment [3] has as its target PKR(wt) (Homo sapiens, UniProt P30613). The experiment in a line: Luminescence Assay (Kinase Glo Plus), PKR wild type. As for the experimental part:
as §1, with “AC50 measurements were obtained by the standard four parameter fit algorithm of ActivityBase XE Runner (max, min, slope and AC50). The AC50 value for a compound is the concentration (μM) at which the activity along the four parameter logistic curve fit is halfway between minimum and maximum activity.” left out

Sequence of PKR(wt) (P30613 whole entry): as the sequence (P30613 whole entry G332S) above, with S332G counted along it

One may read the AC50 as the concentration at which the activity in the assay is half-maximal. In the case of `O=C([C@@H](CO)c1ccccc1)N1CC2=C(C1)CN(S(=O)(=O)c1cnc3c(c1)OCCO3)C2` (single isomer, unassigned) [Compound 2], the AC50 in experiment [1], in experiment [2] and in experiment [3] was 1 to 40 µM throughout.

Take `O=C([C@H](O)c1cccnc1)N1CC2=C(C1)CN(S(=O)(=O)c1cnc3c(c1)OCCO3)C2` [Compound 6]: the AC50 in experiment [1] lay in the range of 0.1 to 1 µM; in experiment [2], 1 to 40 µM.

As for `O=C([C@H](CO)c1ccccc1)N1CC2=C(C1)CN(C(=O)[C@H](CO)c1ccccc1)C2` [Compound 7], the AC50 in experiment [1] and in experiment [2] was greater than 40 µM throughout.

For `O=C(c1cn[nH]c1-c1ccccc1)N1CC2=C(C1)CN(S(=O)(=O)c1ccc3c(c1)OCCO3)C2` [Compound 8], the AC50 in experiment [1] and in experiment [2] was greater than 40 µM in each case.
